Data set [1] is described as follows: Selectivity index, ratio of CC50 for cytotoxicity against human MT4 cells assessed as reduction in cell viability by MTT assay to EC50 for antiviral activity against wild type HIV-1 IIIB infected in human MT4 cells assessed as protection against virus-induced cytopathic effect. The class given is toxicity, cell-based. As to conditions: read-out: Ratio CC50/EC50. For orientation: Tetrazolium dyes change colour on reduction, which living cells bring about.

The test system of data set [2] is Human immunodeficiency virus 1. Briefly: Antiviral activity against wild type HIV-1 IIIB infected in human MT4 cells assessed as protection against virus-induced cytopathic effect incubated for 5 days by MTT assay. It is filed as functional, organism-based. To be noted: Human immunodeficiency virus 1, IIIB, MT4, 120 h. Background: Damage to the host cells serves as the signal in cytopathic effect assays.

The nature of data set [3]: Cytotoxicity against human MT4 cells assessed as reduction in cell viability by MTT assay. It is filed as toxicity, cell-based.
Data set [4] relates to Human immunodeficiency virus 1. Description: Antiviral activity against NNRTI-resistant HIV-1 harboring L100I mutant infected in human MT4 cells assessed as protection against virus-induced cytopathic effect by MTT assay. It is filed as functional, organism-based. As to conditions: Human immunodeficiency virus 1, MT4.
The test system of data set [5] is Human immunodeficiency virus 1. Briefly: Antiviral activity against NNRTI-resistant HIV-1 harboring K103N mutant infected in human MT4 cells assessed as protection against virus-induced cytopathic effect by MTT assay. The class given is functional, organism-based. To be noted: Human immunodeficiency virus 1, MT4.
Data set [6] relates to Human immunodeficiency virus 1. Description: Antiviral activity against NNRTI-resistant HIV-1 harboring RES056 mutant infected in human MT4 cells assessed as protection against virus-induced cytopathic effect by MTT assay. It is filed as functional, organism-based. To be noted: Human immunodeficiency virus 1, MT4.
Data set [7] relates to Human immunodeficiency virus 1. Briefly: Antiviral activity against NNRTI-resistant HIV-1 harboring Y188L mutant infected in human MT4 cells assessed as protection against virus-induced cytopathic effect by MTT assay. The class given is functional, organism-based. To be noted: Human immunodeficiency virus 1, MT4.
Data set [8] has as its target Human immunodeficiency virus type 1 reverse transcriptase (Human immunodeficiency virus 1, UniProt Q72547). Briefly: Inhibition of wild type HIV-1 Reverse transcriptase assessed as reduction of biotin-dUTP incorporation into […] using ABTS as substrate preincubated with compound for 1 hr followed by substrate addition in presence of biotin-labeled dNTPs by ELISA analysis.

Data set [9] relates to Human immunodeficiency virus 1. Description: Antiviral activity against NNRTI-resistant HIV-1 harboring Y181C mutant infected in human MT4 cells assessed as protection against virus-induced cytopathic effect by MTT assay. It is filed as functional, organism-based. As to conditions: Human immunodeficiency virus 1, MT4.
Data set [10] deals with Human immunodeficiency virus 1. Briefly: Antiviral activity against NNRTI-resistant HIV-1 harboring E138K mutant infected in human MT4 cells assessed as protection against virus-induced cytopathic effect by MTT assay. The class given is functional, organism-based. As to conditions: Human immunodeficiency virus 1, MT4.

pEC50, pIC50: −log10 of the molar value.

As for `Cn1c(Cn2ccc(C(F)(F)F)c(Oc3cc(Cl)cc(-c4ccc(C#N)cc4)c3)c2=O)n[nH]c1=O`, the selectivity ratio in [1] was determined as 109. For the same molecule, the pEC50 (commonly the EC50 on a negative log10 scale, so that one unit is a factor of ten) in [2] is 7.33. Further, the CC50 (as a rule, the concentration that lowers cell viability or growth by half) in data set [3] was 5130 nM.
On to `Cn1c(Cn2ccc(C(F)(F)F)c(Oc3cc(Cl)cc(-c4ccsc4)c3)c2=O)n[nH]c1=O`, for which, in [1], the selectivity ratio turned out to be 2130. Further, in [2], the pEC50 was 7.39. In addition, in data set [3], the CC50 is 87200 nM.
On to `Cn1c(Cn2ccc(C(F)(F)F)c(Oc3cc(Cl)cc(-c4ccncc4)c3)c2=O)n[nH]c1=O`, for which the negative-log EC50 (pEC50) in data set [4] is 7.92; in [5], 7.66; in data set [6], 6.02; in data set [7], 5.88; in data set [2], 7.82; in data set [9], 7.40. Also, the pEC50 in data set [10] was 7.41. The selectivity ratio in [1] was 4700. For the same molecule, the pIC50 – broadly, the IC50 on a negative log10 scale, so that one unit is a factor of ten – in data set [8] is 7.10. In [3], the CC50 was 70500 nM.
With `Cn1c(Cn2ccc(C(F)(F)F)c(Oc3cc(Cl)cc(-c4ccc([N+](=O)[O-])cc4)c3)c2=O)n[nH]c1=O`, the selectivity ratio in [1] is 1460. The pEC50 in [2] was 7.51. Also, the CC50 in data set [3] turned out to be 45400 nM.
In the same order, the values of `Cn1c(Cn2ccc(C(F)(F)F)c(Oc3cc(Cl)cc(-c4ccc(O)cc4)c3)c2=O)n[nH]c1=O` are 45, 6.44 and 16200 nM.
As for `Cn1c(Cn2ccc(C(F)(F)F)c(Oc3cc(Cl)cc(Br)c3)c2=O)n[nH]c1=O`, the pEC50 in [4] is 7.92; in [5], 7.66; in data set [6], 6.65; in data set [7], 5.87; in data set [2], 8.00; in data set [9], 7.64. The negative-log EC50 (pEC50) in data set [10] is 7.55. Further, in data set [1], the selectivity ratio was determined as 14200. Besides, the pIC50 in data set [8] was 7.52. The CC50 in data set [3] came out at 142000 nM.
Turning to `Cn1c(Cn2ccc(C(F)(F)F)c(Oc3cc(Cl)cc(-c4cncnc4)c3)c2=O)n[nH]c1=O`, the pEC50 in [4] was 7.72; in data set [5], 7.38; in [6], 7.04; in data set [7], 5.83; in data set [2] it was 8.00; in data set [9], 7.37. Also, the pEC50 in data set [10] is 7.60. Besides, the selectivity ratio in data set [1] came to 6470. Besides, the pIC50 in data set [8] was 7.40. Further, the CC50 in [3] came to 64700 nM.
On to `Cn1c(Cn2ccc(C(F)(F)F)c(Oc3cc(Cl)cc(-c4cccnc4)c3)c2=O)n[nH]c1=O`, for which the selectivity ratio in data set [1] stood at 210. Also, the negative-log EC50 (pEC50) in data set [2] is 7.21. The 50% cytotoxic concentration (CC50) in data set [3] is 12800 nM.
`Cn1c(Cn2ccc(C(F)(F)F)c(Oc3cc(Cl)cc(-c4cccs4)c3)c2=O)n[nH]c1=O`: the selectivity ratio in data set [1] worked out at 48. The pEC50 in data set [2] was 6.02. In addition, the 50% cytotoxic concentration (CC50) in data set [3] is 45800 nM.
In the same order, the values of `Cn1c(Cn2ccc(C(F)(F)F)c(Oc3cc(Cl)cc(-c4ccoc4)c3)c2=O)n[nH]c1=O` are 205, 6.55 and 57400 nM.
In the same order, the values of `Cn1c(Cn2ccc(C(F)(F)F)c(Oc3cc(Cl)cc(-c4ccc(N)cc4)c3)c2=O)n[nH]c1=O` are 213, 6.80 and 33700 nM.
As to `COC(=O)c1ccc(-c2cc(Cl)cc(Oc3c(C(F)(F)F)ccn(Cc4n[nH]c(=O)n4C)c3=O)c2)cc1`, the pEC50 in data set [4] was 7.96; in data set [5], 7.72; in data set [6] it was 6.75; in data set [7], 6.12; in data set [2], 7.96; in [9] it was 7.77. In [10], the pEC50 is 7.80. Further, the selectivity ratio in data set [1] amounted to 4360. Besides, the pIC50 in [8] is 7.52. The CC50 in [3] was determined as 47900 nM.
With `Cn1c(Cn2ccc(C(F)(F)F)c(Oc3cc(Cl)cc(-c4cnc(N)nc4)c3)c2=O)n[nH]c1=O`, the selectivity ratio in data set [1] worked out at 19. For the same molecule, the pEC50 in data set [2] was 6.77. Further, the CC50 in data set [3] was found to be 3240 nM.
`Cn1c(Cn2ccc(C(F)(F)F)c(Oc3cc(Cl)cc(-c4cnc5ccccc5c4)c3)c2=O)n[nH]c1=O`: in data set [1], the selectivity ratio was 133. In addition, the pEC50 in [2] is 6.36. Besides, the CC50 in [3] came to 58100 nM.
With `Cc1ccc(-c2cc(Cl)cc(Oc3c(C(F)(F)F)ccn(Cc4n[nH]c(=O)n4C)c3=O)c2)cc1`, the pEC50 in data set [4] was 7.89; in [5], 7.77; in data set [6], 6.46; in data set [7], 5.87; in [2] it was 8.10; in [9], 7.54. In data set [10], the pEC50 is 7.43. Moreover, in [1], the selectivity ratio was found to be 11800. Besides, the negative logarithm of the IC50 (pIC50) in data set [8] is 7.52. Besides, in data set [3], the CC50 is 94200 nM.
`Cn1c(Cn2ccc(C(F)(F)F)c(Oc3cc(Cl)cc(-c4ccc(Cl)cc4)c3)c2=O)n[nH]c1=O`: the pEC50 in data set [4] is 7.85; in [5] it was 7.72; in [6], 6.40; in data set [7] it was 5.83; in data set [2], 7.96; in data set [9], 7.52. Further, the pEC50 in data set [10] was 7.55. For the same molecule, in [8], the pIC50 is 7.70. The CC50 in data set [3] stood at 124000 nM.
Take `Cn1c(Cn2ccc(C(F)(F)F)c(Oc3cc(Cl)cc(-c4ccc(C(N)=O)cc4)c3)c2=O)n[nH]c1=O`: the selectivity ratio in data set [1] was determined as 284. Moreover, the pEC50 in [2] is 6.58. Moreover, the CC50 in data set [3] is 74200 nM.
As to `Cn1c(Cn2ccc(C(F)(F)F)c(Oc3cc(Cl)cc(C(=O)O)c3)c2=O)n[nH]c1=O`, the selectivity ratio in data set [1] is 6. Further, in data set [2], the pEC50 was 5.27. For the same molecule, the CC50 in [3] is 34200 nM.
`Cn1c(Cn2ccc(C(F)(F)F)c(Oc3cc(Cl)cc(-c4ccccc4)c3)c2=O)n[nH]c1=O`: in [1], the selectivity ratio is 505. The negative logarithm of the EC50 (pEC50) in data set [2] is 6.43. For the same molecule, the CC50 in data set [3] amounted to 187000 nM.
With `Cn1c(Cn2ccc(C(F)(F)F)c(Oc3cc(Cl)cc(C#N)c3)c2=O)n[nH]c1=O` [DORAVIRINE], the pEC50 was 7.89 in data set [4]; 7.85 in data set [5]; 6.89 in data set [6]; 5.68 in [7]; 8.10 in data set [2]; 7.57 in [9]. Also, the pEC50 in data set [10] was 7.43. For the same molecule, in [3], the CC50 is above 294000 nM.
`Cn1c(Cn2ccc(C(F)(F)F)c(Oc3cc(Cl)cc(-c4cc5ccccc5s4)c3)c2=O)n[nH]c1=O`: the pEC50 is 7.92 in data set [4]; 7.74 in data set [5]; 6.73 in [6]; 6.19 in [7]; 7.92 in data set [2]; 7.42 in [9]. The negative logarithm of the EC50 (pEC50) in [10] was 7.77. In addition, the selectivity ratio in data set [1] came out at 8420. The pIC50 in [8] is 7.40. In data set [3], the CC50 came out at 101000 nM.
Consider `Cn1c(Cn2ccc(C(F)(F)F)c(Oc3cc(Cl)cc(-c4ccc(F)cc4)c3)c2=O)n[nH]c1=O`, for which the selectivity ratio in [1] came out at 161. Also, the pEC50 in data set [2] was 6.71. For the same molecule, the CC50 in [3] stood at 31300 nM.
Consider `Cn1c(Cn2ccc(C(F)(F)F)c(Oc3cc(Cl)cc(-c4ccc(N)nc4)c3)c2=O)n[nH]c1=O`, for which, in [1], the selectivity ratio was found to be 154. The pEC50 in data set [2] is 6.68. In addition, in [3], the CC50 was determined as 32100 nM.
The matching figures for `Cn1c(Cn2ccc(C(F)(F)F)c(Oc3cc(Cl)cc(C(N)=O)c3)c2=O)n[nH]c1=O`: 14, 5.69 and 28500 nM.
In the same order, the values of `Cn1c(Cn2ccc(C(F)(F)F)c(Oc3cc(Cl)cc(-c4ccco4)c3)c2=O)n[nH]c1=O` are 311, 6.72 and 59100 nM.

For the origin of these results see ChEMBL document CHEMBL5543149, “Discovery of Novel Aryl Triazolone Dihydropyridines (ATDPs) Targeting Highly Conserved Residue W229 as Promising HIV-1 NNRTIs” (J Med Chem, 2024).
